Reference: US20050037033A1, “Microbicidal compositions and methods and use” (priority 2003, published 2005)

Experiments:
HIV = test: Cell-free inactivation assay; type: cell-based; details: virus incubated with product for 2 minutes
Protocol: Cell-free inactivation assay: Virus was incubated with product for 2 minutes, a series of 10-fold dilutions were made, each dilution was added to the host cells and viral infectivity was measured.

Mobiluncus mulieris = test: Anaerobe inhibition assay; type: cell-based; details: 2 strains, read-out: Minimum Inhibitory Concentrations (MICs)
Prevotella intermedia = test: Anaerobe inhibition assay; type: cell-based; details: 2 strains, read-out: Minimum Inhibitory Concentrations (MICs)
spermatozoa = test: Sperm immobilization assay; type: cell-based
Protocol: To assess sperm-immobilizing activity, compounds were incubated with sperm for 30 seconds in two fold serial dilutions. Those dilutions that immobilized all screened spermatozoa were further diluted several times in buffer and incubated at 37° C., 5% CO2, for 1 h, to verify any possible recovery of motility. Only those dilutions (compound concentrations) that immobilized all spermatozoa with no recovery of motility were considered “positive” and used to calculate the compound's minimum effective concentration (MEC).

[1] = system: HIV-1 infected SupTi cells (strain IIIB); test: Cell to cell transmission assay (CTC); type: cell-based; details: Human immunodeficiency virus 1, IIIB, Series 2, P4-R5 cells, 2 hour incubation, read-out: 50% Effective Concentrations (IC50)
Protocol: Cell to cell transmission assay (CTC): HIV-1 infected SupTi cells (strain IIIB), killed prior to exposure, were incubated with compound and P4-R5 cells for 2 hours at 37° C., followed by washing and 48 hour incubation.

Clost perfringes = test: Anaerobe inhibition assay; type: cell-based, Clostridium perfringes; details: Clostridium, 2 strains, read-out: Minimum Inhibitory Concentrations (MICs)
Protocol: (§1) Working in an anaerobic chamber, the anaerobes were suspended into brucella broth to the turbidity of the 0.5 McFarland standard and pipetted into the wells of the Steers replicator head, removed from the chamber and stamped onto the supplemented Brucella agar plates containing the serial dilutions of the antimicrobials and the growth control plates. The final inoculum was 10^5 cfu/spot.
(§2) The anaerobes were incubated in an anaerobic chamber at 37° C. for 2 days; aerobes were incubated in ambient air at 36° C. for 20h.

[2] = system: HIV-1 strain BaL (R5 strain); test: Viral entry/binding inhibition assay (VBI), strain BaL; type: cell-based; details: Human immunodeficiency virus 1, Series 2, P4-R5 cells, 2 hour incubation, read-out: 50% Effective Concentrations (IC50)
Protocol: (§3) Viral entry inhibition assay (VBI): Cell-free HIV-1 (strain III-B: X4 strain; or strain BaL: R5 strain) was incubated with compound and P4-R5 cells for 2 hours at 37° C., followed by washing and 48 hour incubation.

[3] = system: Gardnerella vaginalis, Mobiluncus spp., Bacteroides spp., Clostridium perfringes, Fusobacterium nucleatum, Peptostreptococcus spp., Porphyromonas spp., and …; test: Anaerobe inhibition assay, all anaerobes tested; type: cell-based
Eubact lentum = test: Anaerobe inhibition assay; type: cell-based; details: 2 strains, read-out: Minimum Inhibitory Concentrations (MICs)
Fuso. nucleatum = test: Anaerobe inhibition assay; type: cell-based; details: Fusobacterium nucleatum, 2 strains, read-out: Minimum Inhibitory Concentrations (MICs)
[4] = system: Lactobacilli (L. jensii, L. gasseri, L. acidophilus, L. salivarius); test: Lactobacillus Steers time-kill (TK) assay, all strains; type: cell-based
Mobiluncus curtisii = test: Anaerobe inhibition assay; type: cell-based; details: 2 strains, read-out: Minimum Inhibitory Concentrations (MICs)
[5] = system: HIV-1 strain III-B (X4 strain); test: Viral entry/binding inhibition assay (VBI), strain IIIB; type: cell-based; details: Human immunodeficiency virus 1, Series 2, P4-R5 cells, 2 hour incubation, read-out: 50% Effective Concentrations (IC50)
Protocol: as §3

Gardnerella vaginalis = test: Anaerobe inhibition assay; type: cell-based; details: 2 strains, read-out: Minimum Inhibitory Concentrations (MICs)
HIV-IRF = test: PV-L assay (virus mixed with compound, then cells, no washing); type: cell-based; details: Human immunodeficiency virus 1, PM1, Series 1, PV-L: HIV-IRF mixed with compound 1 hour, then PM-1 cells, 8 days, reverse transcriptase activity, read-out: 50% Effective Concentrations (IC50)
Protocol: PV-L assay: Immobilized virus (HIV-IRF; 10^3 TCID50) was mixed with compound for 1 hour at 37° C. before addition of indicator T cells (PM-1; 10^5/well) and incubated for 8 days (no washing).
In each of the assays above, viral replication was monitored after 8 days by measuring reverse transcriptase activity.

Cytotoxicity assay = type: cell-based; details: human, HeLa cells
Protocol: The cells listed in Table 4 were incubated for the indicated period of time with different concentrations of ciclopiroxolamine and cell viability was measured by the 3-(4,5-dimethylthiazol-2-yl)-2,5-diphenyltetrazolium bromide (MTT) assay or by treatment with propidium iodide and fluorescence. Percent viability was calculated with respect to the viability of mock-exposed cells (cells incubated without compounds).
In the MTT assay, the effect of each agent on cell viability was determined using an assay in which dehydrogenases in viable cells cleave the compound 3-(4,5-dimethylthiazol-2-yl)-2,5-diphenyltetrazolium bromide (MTT), yielding a purple product (formazan) which can be measured spectrophotometrically (Pauwels et al., 1988). Cells were seeded into 96 well plates at a density of 3×10^4 cells/well 24 hours prior to introduction of the microbicides. Agents were diluted in as previously indicated. Agents were added to triplicate wells in half-log serial dilutions. […] At the conclusion of each experiment, cells were washed, replenished with fresh medium and incubated with MTT (250 μl/well) for 2 hours at 37° C. […] In this assay, measured absorbance is proportional to the viable cell number, and inversely proportional to the degree of cytotoxicity.

[6] = system: Bacteroides thetaiotaomicron; test: Anaerobe inhibition assay; type: cell-based; details: 1 strain, read-out: Minimum Inhibitory Concentrations (MICs)
Protocol: as §1, §2

[7] = system: Peptostrep asaccharolyticus; test: Anaerobe inhibition assay; type: cell-based; details: 2 strains
HSV-2 = HSV-2 viral binding inhibition assay; type: cell-based; details: Human alphaherpesvirus 2; Vero cells, plaque assay
Protocol: Confluent Vero cells were incubated with different concentrations of ciclopiroxolamine at 37° C. for 1 hour. 200 pfu of HSV-2 were then added to the cells in the presence of test compound and the cells were incubated at 37° C. for 1 hour. The infected cells were washed with PBS and overlaid with methylcellulose (no drug) for a plaque assay.

Porphyromonas levii = test: Anaerobe inhibition assay; type: cell-based; details: 2 strains, read-out: Minimum Inhibitory Concentrations (MICs)

With `Cc1cc(C2CCCCC2)n(O)c(=O)c1.NCCO` [CO, 6-Cyclohexyl-1-hydroxy-4-methyl-2-(1H)-pyridone ethanolamine salt] the “log reduction (viral infectivity)” value (HIV; At 0.09%) was “At 0.09%: ≧2.0 log”, the “log reduction (viral infectivity)” value (HIV; At 0.3%) was “At 0.3%: ≧2.7 log” and the MIC (Mobiluncus mulieris) was 40 µg/mL. For the same compound, the MIC (Prevotella intermedia) was 40 µg/mL, the “cytotoxicity towards spermatozoa” value (spermatozoa) was “very little cytotoxicity towards spermatozoa” and the “Sperm immobilization activity, MEC (minimum effective concentration)” value (spermatozoa; 30 seconds incubation with sperm) was “MEC: 1,200-8,800 μg/ml”. The IC50 [1] was 97.4 µg/mL, the MIC (Clost perfringes) was 40 µg/mL and the IC50 [2] was 6.9 µg/mL. The “minimal inhibitory concentrations (MICs), range over all anaerobes tested” value [3] was 40 to 80 µg/mL, the MIC (Eubact lentum) was 40 µg/mL and the MIC (Fuso. nucleatum) was 40 µg/mL. The “effect on lactobacilli (summary in words)” value [4] was “inhibits the growth of lactobacilli but does not kill them”, the MIC (Mobiluncus curtisii) was 40 µg/mL and the IC50 [5] was 45.5 µg/mL. For the same compound, the MIC (Gardnerella vaginalis) was 80 µg/mL, the IC50 (HIV-IRF) was 1.46 µg/mL and the CC50 at 1 h (Cytotoxicity assay; Series 1, Original material, 1 hour incubation, 100 μg/ml highest conc tested) was greater than 100 µg/mL. The CC50 at 1 h (Cytotoxicity assay; Series 3, 1 hour incubation) was 859 µg/mL, the MIC [6] was 40 µg/mL and the “Minimum Inhibitory Concentrations (MICs)” value [7] was 80 µg/mL. For the same compound, the MIC ([7]; read-out: Minimum Inhibitory Concentrations (MICs)) was 40 µg/mL, the IC50 (HSV-2) was 153 µg/mL and the MIC (Porphyromonas levii) was 40 µg/mL.
